Assay results: US20200377485A1, “HYDANTOIN MODULATORS OF KV3 CHANNELS” (AUTIFONY THERAPEUTICS LIMITED, priority 2015, published 2020)

Legend:
[1] = General observations of behaviour during the pain studies; format: in vivo, rat; settings: acute administration, 10-60 mg/kg i.p., neuropathic and inflammatory pain models
Description: In addition to behavioural pain readings, each rat was observed throughout the study for changes in general behaviour.

[2] = tested on: rat model of neuropathic pain; experiment: Neuropathic pain model, partial ligation of the sciatic nerve, paw withdrawal threshold to mechanical force; format: in vivo
Experimental: (§1) Subjects comprised male, Wistar Hanover rats, 6 animals per group (225±2 g).
(§2) Vehicle (12% Captisol®; 0.5% w/v HPMC and 0.1% w/v Tween-80; 5 ml/kg via the intraperitoneal route) was prepared using autoclaved deionized water not more than one week prior to use.
The control for the neuropathic pain model was lamotrigine, administered at 30 mg/kg via oral delivery. The control for the inflammatory pain model was diclofenac, administered at 30 mg/kg via oral delivery. Statistical analysis was performed using one-way ANOVA, and comparisons were performed with time-matched vehicle group using Tukey's HSD test wherein * p<0.05, ** p<0.01, *** p<0.001. […]
Withdrawal thresholds were measured on both the ipsilateral (ligated) and contralateral (non-ligated) paws, prior to (predose) and then up to 24 h following drug or vehicle administration.
Pre-dose behavioural measurements were obtained by measuring paw withdrawals 14 days following nerve ligation; before the initiation of drug treatment. Following treatment, further readings were taken at 1, 3, 6 and 24 hour after administration. […]
Data were expressed as withdrawal threshold (g) and percentage reversals calculated according to the following formula: […]
Statistical analysis was carried out on withdrawal threshold readings using ANOVA with repeated measures followed by Tukey's HSD test. […]

[3] = tested on: rat model of persistent inflammatory pain; experiment: Persistent inflammatory pain model, intraplantar Freund's Complete Adjuvant, paw withdrawal threshold to mechanical force; format: in vivo
Experimental: as §1, §2
The control for the neuropathic pain model was lamotrigine, administered at 30 mg/kg via oral delivery. The control for the inflammatory pain model was diclofenac, administered at 30 mg/kg via oral delivery. Statistical analysis was performed using one-way ANOVA, and comparisons were performed with time-matched vehicle group using Tukey's HSD test wherein * p<0.05, ** p<0.01, *** p<0.001.
Mechanical hyperalgesia was examined in a model of persistent inflammatory pain. […]
To assess the effect of the test compound, paw withdrawal thresholds were measured on both the ipsilateral (FCA-injected) and contralateral (non-injected) paws, prior to (naïve) and 24 h following FCA injection (predose), and then at 1, 3, 6 and 24 h after drug or vehicle administration.
Mechanical hyperalgesia was examined in a model of neuropathic pain by measuring paw withdrawal thresholds (PWT) to increasing mechanical force applied to the dorsal surface of the rat paw using an Analgesymeter (Ugo-Basile, Milan) equipped with a wedge-shaped probe (area 1.75 mm^2). […] Both ipsilateral and contralateral paw withdrawal readings were taken. […]

[4] = target: T1, human Kv3.2 channels (hKv3.2) (Homo sapiens, UniProt Q96PR1); experiment: IonWorks Quattro electrophysiology, hKv3.2 stable CHO-K1 cell line (potentiation; secondary analysis of activation time Tauact); format: cell-based; settings: -15 mV depolarising step; concentration chosen to give ~0.3 nA at end of pulse: RE1 6.25, RE3 0.2, RE9 0.2, Example 1 0.8 μM; vehicle 7.1 ms
T1 construct: expressed in transfected cells
T1 sequence (Q96PR1 1-638): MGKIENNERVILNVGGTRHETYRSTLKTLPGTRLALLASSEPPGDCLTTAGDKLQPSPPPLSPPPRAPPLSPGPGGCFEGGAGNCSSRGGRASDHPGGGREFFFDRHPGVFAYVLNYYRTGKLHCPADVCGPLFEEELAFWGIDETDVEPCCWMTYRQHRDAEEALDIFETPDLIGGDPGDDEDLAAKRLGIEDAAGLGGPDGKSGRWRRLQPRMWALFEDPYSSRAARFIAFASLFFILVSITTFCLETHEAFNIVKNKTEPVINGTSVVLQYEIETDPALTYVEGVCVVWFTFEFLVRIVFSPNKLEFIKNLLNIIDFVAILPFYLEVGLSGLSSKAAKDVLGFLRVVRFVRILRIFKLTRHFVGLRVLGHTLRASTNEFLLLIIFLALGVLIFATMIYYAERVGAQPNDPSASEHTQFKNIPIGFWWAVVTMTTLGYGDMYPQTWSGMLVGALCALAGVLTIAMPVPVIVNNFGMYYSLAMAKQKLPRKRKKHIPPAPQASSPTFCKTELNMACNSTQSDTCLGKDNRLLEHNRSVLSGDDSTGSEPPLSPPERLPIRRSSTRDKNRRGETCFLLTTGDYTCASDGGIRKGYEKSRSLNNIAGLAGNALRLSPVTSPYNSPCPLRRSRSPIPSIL
Experimental: The ability of the compounds of the invention to modulate the voltage-gated potassium channel subtypes Kv3.2 or Kv3.1 may be determined using the following assay.
To assess compound effects on human Kv3.2 channels (hKv3.2), a stable cell line expressing hKv3.2 was created by transfecting Chinese Hamster Ovary (CHO)-K1 cells with a pClH5-hKv3.2 vector. Cells were cultured in DMEM/F12 medium supplemented by 10% Foetal Bovine Serum, lx non-essential amino acids (Invitrogen) and 500 ug/ml of Hygromycin-B (Invitrogen). Cells were grown and maintained at 37° C. in a humidified environment containing 5% CO2 in air.
The day of the experiment, cells were removed from the incubator and the culture medium removed. Cells were washed with 5 ml of Dulbecco's PBS (DPBS) calcium and magnesium free and detached by the addition of 3 ml Versene (Invitrogen, Italy) followed by a brief incubation at 37° C. for 5 minutes. The flask was tapped to dislodge cells and 10 ml of DPBS containing calcium and magnesium was added to prepare a cell suspension. The cell suspension was then placed into a 15 ml centrifuge tube and centrifuged for 2 min at 1200 rpm. […]
Experiments were conducted at room temperature using IonWorks Quattro™ planar array electrophysiology technology (Molecular Devices Corp.) with PatchPlate™ PPC. […] Planar electrode hole resistances (Rp) were determined by applying a 10 mV voltage step across each well. […] Test pulses protocol may be performed in the absence (pre-read) and presence (post-read) of the test compound. Pre- and post-reads may be separated by the compound addition followed by a 3 minute incubation. […]
The recordings were analysed and filtered using both seal resistance (>20 MΩ) and peak current amplitude (>500 pA at the voltage step of 40 mV) in the absence of compound to eliminate unsuitable cells from further analysis. Paired comparisons between pre- and post-drug additions measured for the −15 mV voltage step were used to determine the positive modulation effect of each compound. […]

Cc1ccc(Oc2ncc(N3C(=O)NC(C)(C)C3=O)cn2)c2c1OCC21CC1 [Compound X, 5,5-dimethyl-3-[2-(7-methylspiro[2H-benzofuran-3,1-cyclopropane]-4-yl)oxypyrimidin-5-yl]imidazolidine-2,4-dione]
changes in normal (general) behaviour [1]: without causing significant changes in normal behaviour | reversal of mechanical sensitivity, in words ([2]; 10, 30, 60 mg/kg i.p.): dose-related reversal of mechanical sensitivity with rapid onset and long duration of action | reversal of mechanical sensitivity, in words ([3]; 10, 30, 60 mg/kg i.p.): dose-related reversal of mechanical sensitivity with rapid onset of action

CC[C@@]1(C)NC(=O)N(c2ccc(Oc3ccc(C)c4c3C3(CC3)CO4)cn2)C1=O [Example 1, (5R)-5-ethyl-5-methyl-3-[5-(7-methylspiro[2H-benzofuran-3,1′-cyclopropane]-4-yl)oxy-2-pyridyl]imidazolidine-2,4-dione]
Tauact mean (activation time constant of hKv3.2 current) [4]: 18.2 ms

CC[C@H]1NC(=O)N(c2ccc(Oc3ccc(C)c(OC)c3)nc2)C1=O [RE1, (5R)-5-ethyl-3-(6-{[4-methyl-3-(methyloxy)phenyl]oxy}-3-pyridinyl)-2,4-imidazolidinedione]
Tauact mean (activation time constant of hKv3.2 current) [4]: 9.9 ms

CC[C@H]1NC(=O)N(c2ccc(Oc3ccc(C#N)cc3C(C)(C)C)nc2)C1=O [RE3, 3-(1,1-dimethylethyl)-4-({5-[(4R)-4-ethyl-2,5-dioxo-1-imidazolidinyl]-2-pyridinyl}oxy)benzonitrile]
Tauact mean (activation time constant of hKv3.2 current) [4]: 23.0 ms

O=C(O)Cc1ccccc1Nc1c(Cl)cccc1Cl [diclofenac]
peak reversal of mechanical sensitivity (positive control) ([3]; 30 mg/kg oral, 1 h post-dose): 64%

Nc1nnc(-c2cccc(Cl)c2Cl)c(N)n1 [lamotrigine]
peak reversal of mechanical sensitivity (positive control) ([2]; 30 mg/kg oral, 3 h post-dose): 67%
